In brackets after ≈: the same amount, converted by molar mass. Activity calls are given as the source filed them. No cut-off for these calls is given here.
Key:
[1] = (§1) Inhibition of DNA polymerase; set-up: concentration or dose not given beside the values; conditions: concentration not given here
[2] = target: T1, DNA polymerase catalytic subunit (Herpes simplex virus (type 1 / strain 17)) (UniProt P04293); experiment: as §1; set-up: concentration or dose not given beside the values; conditions: concentration not given here
T1 sequence (whole entry): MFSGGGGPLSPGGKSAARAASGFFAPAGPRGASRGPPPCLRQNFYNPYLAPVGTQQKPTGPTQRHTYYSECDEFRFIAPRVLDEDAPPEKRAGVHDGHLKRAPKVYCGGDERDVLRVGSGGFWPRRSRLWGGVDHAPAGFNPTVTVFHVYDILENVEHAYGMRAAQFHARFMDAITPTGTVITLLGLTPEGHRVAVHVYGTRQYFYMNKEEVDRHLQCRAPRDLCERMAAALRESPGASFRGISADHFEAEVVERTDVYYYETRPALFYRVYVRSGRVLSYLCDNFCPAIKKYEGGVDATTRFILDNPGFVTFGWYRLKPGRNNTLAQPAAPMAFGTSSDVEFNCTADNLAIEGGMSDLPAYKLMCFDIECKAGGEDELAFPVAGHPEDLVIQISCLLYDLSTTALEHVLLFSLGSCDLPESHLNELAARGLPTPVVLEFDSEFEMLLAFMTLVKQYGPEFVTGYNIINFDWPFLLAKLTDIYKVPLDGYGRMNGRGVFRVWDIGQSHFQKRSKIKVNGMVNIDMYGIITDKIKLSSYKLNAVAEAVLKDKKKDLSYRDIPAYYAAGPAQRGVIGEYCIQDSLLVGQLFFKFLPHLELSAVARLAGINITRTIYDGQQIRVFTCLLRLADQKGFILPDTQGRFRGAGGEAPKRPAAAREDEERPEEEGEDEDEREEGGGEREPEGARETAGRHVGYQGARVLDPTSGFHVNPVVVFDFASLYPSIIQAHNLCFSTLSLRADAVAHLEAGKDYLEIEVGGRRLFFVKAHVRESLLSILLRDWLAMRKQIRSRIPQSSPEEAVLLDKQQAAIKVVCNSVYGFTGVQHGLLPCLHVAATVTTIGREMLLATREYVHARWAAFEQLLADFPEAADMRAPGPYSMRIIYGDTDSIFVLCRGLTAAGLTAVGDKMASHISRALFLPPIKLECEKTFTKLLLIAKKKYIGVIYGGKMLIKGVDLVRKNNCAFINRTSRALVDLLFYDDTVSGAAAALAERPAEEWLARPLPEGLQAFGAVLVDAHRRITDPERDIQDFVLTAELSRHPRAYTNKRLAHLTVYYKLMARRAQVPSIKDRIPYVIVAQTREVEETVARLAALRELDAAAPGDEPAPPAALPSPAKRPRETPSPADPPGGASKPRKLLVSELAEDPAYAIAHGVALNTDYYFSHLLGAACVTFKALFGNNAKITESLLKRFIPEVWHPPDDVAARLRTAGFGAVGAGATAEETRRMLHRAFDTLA

[3] = target: T1, DNA polymerase catalytic subunit (Herpes simplex virus (type 1 / strain 17)); experiment: Percentage of diphosphates (DP) in the second step of staggered assay mixture from step 1 was incubated with GMP kinase and crude extract of HSV-1 infected HeLa cells over night; format: functional, cell-based
[4] = target: T1, DNA polymerase catalytic subunit (Herpes simplex virus (type 1 / strain 17)); experiment: Percentage of monophosphates (MP) in the second step of staggered assay mixture from step 1 was incubated with GMP kinase and crude extract of HSV-1 infected HeLa cells over night; format: functional, cell-based
[5] = organism: Oryctolagus cuniculus; experiment: (§2) Antiviral activity against HSV-2 cell line (concentration required to prevent viral cytopathic effect in half of primary rabbit kidney cell cultures); format: functional; conditions: read-out: ED50 (the source's name)
[6] = organism: Oryctolagus cuniculus; experiment: (§3) Antiviral activity against HSV-1 cell line (concentration required to prevent viral cytopathic effect in half of primary rabbit kidney cell cultures); format: functional; conditions: read-out: ED50 (the source's name)
[7] = target: T1, DNA polymerase catalytic subunit (Herpes simplex virus (type 1 / strain 17)); experiment: (§4) Percentage of triphosphates (TP) in the second step of staggered assay mixture from step 1 was incubated with GMP kinase and crude extract of HSV-1 infected HeLa cells over night; format: functional, cell-based; conditions: Homo sapiens
[8] = organism: Oryctolagus cuniculus; experiment: Antiviral activity against HSV-2 cell line (concentration required to prevent viral cytopathic effect in half of primary rabbit kidney cell cultures); Not Active at 100 ug/mL; format: functional, organism-based
[9] = organism: Oryctolagus cuniculus; experiment: Antiviral activity against HSV-1 cell line (concentration required to prevent viral cytopathic effect in half of primary rabbit kidney cell cultures); Not Active at 100 ug/mL; format: functional, organism-based
[10] = as §1; format: functional; conditions: concentration not given here
[11] = tested on: HeLa; experiment: as §4; format: functional, Homo sapiens
[12] = as §3; conditions: Oryctolagus cuniculus, read-out: ED50
[13] = as §2; conditions: Oryctolagus cuniculus, HSV-2, read-out: ED50
[14] = tested on: Thymidine kinase (Human herpesvirus 1); experiment: Percentage of monophosphates (MP) formed in the first step of staggered assay compound was incubated with HSV-1 thymidine kinase for 4 hr

SMILES | inhibition [1] [%] | inhibition [2] [%] | DP [3] [%] | MP [4] [%] | EC50 [5] [µg/mL] | EC50 [6] [µg/mL] | TP [7] [%] | ED50 [8] | ED50 [9] | inhibition [10] [%] | TP [11] [%] | EC50 [12] [µg/mL] | EC50 [13] [µg/mL] | NA [8] | NA [9] | MP [14] [%]
Nc1nc(O)c2ncn(CCC(CO)CO)c2n1 [PENCICLOVIR] | 8 | 0 | 13 | 3 | 12 (≈ 47.4 µM) | 6 (≈ 23.7 µM) | 75 | – | – | – | – | – | – | – | – | –
Nc1nc(O)c2ncn(CC#CCO)c2n1 | 5 | 0 | 0 | 0 | – | – | 0 | inactive | inactive | – | – | – | – | – | – | –
Nc1nc(O)c2ncn(C[C@H]3C[C@@H]3CO)c2n1 | 30 | 26 | 48 | 9 | – | – | 2 | inactive | inactive | – | – | – | – | – | – | –
Nc1nc(O)c2ncn(C/C=C\CO)c2n1 | 8 | 12 | 16 | 12 | 50 (≈ 226 µM) | 12 (≈ 54.2 µM) | 64 | – | – | – | – | – | – | – | – | –
Nc1nc(O)c2ncn(C[C@H]3C[C@H]3CO)c2n1 | 14 | 3 | 0 | 0 | 12 (≈ 51 µM) | 6 (≈ 25.5 µM) | 76 | – | – | – | – | – | – | – | – | –
Nc1nc(O)c2ccn(C[C@H]3C[C@H]3CO)c2n1 | 0 | 14 | 0 | 9 | – | – | 0 | inactive | inactive | – | – | – | – | – | – | –
Nc1nc(O)c2ncn(C[C@H]3CC3(CO)CO)c2n1 | 0 | 0 | 0 | 0 | – | 50 (≈ 188 µM) | 0 | inactive | – | – | – | – | – | – | – | –
Nc1ncnc2c1ncn2C[C@H]1C[C@H]1CO | 0 | 5 | 0 | 0 | – | – | 0 | inactive | inactive | – | – | – | – | – | – | –
Nc1ncnc2c1ncn2CC1CC1(CO)CO (stereo unspecified) | – | 0 | 0 | 0 | 50 (≈ 201 µM) | 50 (≈ 201 µM) | 0 | – | – | 12 | – | – | – | – | – | –
Nc1ncnc2c1ncn2C[C@H]1C[C@@H]1CO | 0 | 0 | 0 | 0 | 50 (≈ 228 µM) | 50 (≈ 228 µM) | 0 | – | – | – | – | – | – | – | – | –
Nc1nc(O)c2ncn(CC=C(CO)CO)c2n1 | 0 | 0 | 9 | 0 | – | – | – | inactive | inactive | – | 25 | – | – | – | – | –
Nc1nc2c(ncn2COCCO)c(=O)[nH]1 [ACYCLOVIR] | 40 | 79 | 9 | 3 | – | – | 60 | – | – | – | – | 3 (≈ 13.3 µM) | 3 (≈ 13.3 µM) | – | – | –
Nc1nc(O)c2ncn(C/C=C/CO)c2n1 | 0 | 0 | 0 | 9 | – | – | 0 | inactive | inactive | – | – | – | – | – | – | –
Nc1ncnc2c1ncn2C/C=C\CO | 3 | 0 | 0 | 0 | – | – | 0 | – | – | – | – | – | – | inactive | inactive | 0
Nc1nc(O)c(N=O)c(NC[C@H]2C[C@@H]2CO)n1 | 5 | 9 | 0 | 9 | – | – | 0 | inactive | inactive | – | – | – | – | – | – | –
Nc1nc(O)c(N=O)c(NC[C@H]2C[C@H]2CO)n1 | 0 | 8 | 0 | 0 | – | – | 21 | inactive | inactive | – | – | – | – | – | – | –
Nc1nc(O)c2nnn(C[C@H]3C[C@H]3CO)c2n1 | 1 | 0 | 41 | 2 | – | – | 55 | inactive | inactive | – | – | – | – | – | – | –
Nc1nc2c(ncn2COC(CO)CO)c(=O)[nH]1 [GANCICLOVIR] | 22 | 60 | 10 | 3 | 3 (≈ 11.8 µM) | 3 (≈ 11.8 µM) | 84 | – | – | – | – | – | – | – | – | –
Nc1nc2c(ncn2CCCCO)c(=O)[nH]1 | 20 | 20 | 10 | 0 | 12 (≈ 53.8 µM) | 3 (≈ 13.4 µM) | 17 | – | – | – | – | – | – | – | – | –
Cc1cn(C[C@H]2C[C@H]2CO)c(=O)[nH]c1=O | 0 | 22 | 0 | 23 | – | – | 0 | inactive | inactive | – | – | – | – | – | – | –

Reference: ChEMBL document CHEMBL1124020, “Synthesis and antiherpetic activity of (+/-)-9-[[(Z)-2-(hydroxymethyl)cyclopropyl]methyl]guanine and related compounds” (1988)
